Entries after “also recorded” stand apart in the source; their conditions may differ. Ends that are not written are not given here.
Columns and labels:
microorganisms [1] = experiment: Peptide activities: targeting/binding, antimicrobial, growth or phenotype altering (Tables 7, 8); type: cell-based; conditions: peptides having multiple activities
microorganisms [2] = experiment: Targeting peptide binding to target microorganisms (Tables 3, 10, 12); conditions: microorganism(s) the targeting peptide binds; binding in aqueous buffers varied with peptide solubility, preferably 1x PBS
microorganisms [3] = experiment: Morphology, biofilm and growth disrupting peptides (Table 5); type: cell-based; parameters: key: A: Peptide aggregates; B: Less hyphal formation; Clumps; Diffuse clumps and small polyps; F: Diffuse growth; H: Thin; I: Growth inhibition; Microcolony formation; Rippled; Small polyps; Thick; W: Halo formation on top, microlonies on bottom
Text: In certain embodiments peptides that induce alterations in phenotype or other biological activities can also be used as antimicrobial effector moieties.

| Substance | Activities (microorganisms [1]) | Target(s) (microorganisms [2]) | Organism, effect (microorganisms [3]; E. coli) | Organism, effect (microorganisms [3]; E. faecalis) | Organism, effect (microorganisms [3]; MRSA) | Organism, effect (microorganisms [3]; S. pneumoniae) | Organism, effect (microorganisms [3]; S. epidermidis) | Organism, effect (microorganisms [3]; C. jejuni) |
| --- | --- | --- | --- | --- | --- | --- | --- | --- |
| PF-427: peptide having multiple activities (chain 1 YVLEYHGLRATQDVDAFMAL; chain 2 YVLEYHGLRATQDVDAFMAL; Peptide with targeting and/or antimicrobial activity) | G B | M. luteus; also recorded: P. aeruginosa; also recorded: C. albicans; also recorded: C. jejuni | E. coli (C) | E. faecalis (C) | MRSA (C) | S. pneumoniae (R) |  |  |
| PF-428: peptide having multiple activities (chain 1 ENEESIF; chain 2 ENEESIF; Peptide with targeting and/or antimicrobial activity) | G B | S. epidermidis; also recorded: C. albicans; also recorded: E. faecalis; also recorded: C. jeikeium |  |  |  | S. pneumoniae (H) |  |  |
| PF-429: peptide having multiple activities (chain 1 AATLICVGSGIMSSL; chain 2 AATLICVGSGIMSSL; Peptide with targeting and/or antimicrobial activity) | G B | S. epidermidis; also recorded: S. pneumoniae; also recorded: C. jeikeium |  | E. faecalis (C) | MRSA (C) | S. pneumoniae (M) | S. epidermidis (C) |  |
| PF-430: peptide having multiple activities (chain 1 AVVCGYLAYTATS; chain 2 AVVCGYLAYTATS; Peptide with targeting and/or antimicrobial activity) | G B | S. epidermidis; also recorded: M. luteus; also recorded: E. coli; also recorded: S. pneumoniae; also recorded: E. faecalis; also recorded: C. jeikeium; also recorded: C. jejuni |  |  | MRSA (M) | S. pneumoniae (M) | S. epidermidis (M) |  |
| PF-433: peptide having multiple activities (chain 1 MRKEFHNVLSSGQLLADKRPARDYNRK; chain 2 MRKEFHNVLSSGQLLADKRPARDYNRK; Peptide with targeting and/or antimicrobial activity) | G B | S. epidermidis; also recorded: E. coli; also recorded: S. pneumoniae; also recorded: C. jeikeium |  |  |  | S. pneumoniae (H) |  |  |
| PF-434: peptide having multiple activities (chain 1 GQLLADKRPARDYNRK; chain 2 GQLLADKRPARDYNRK; Peptide with targeting and/or antimicrobial activity) | G B | S. epidermidis; also recorded: M. luteus; also recorded: S. pneumoniae; also recorded: C. jeikeium |  |  |  | S. pneumoniae (S) |  |  |
| PF-444: peptide having multiple activities (MAAKLWEEGKMVYASSASMTKRLKLAMSKV; Peptide with targeting and/or antimicrobial activity) | G B | M. luteus; also recorded: C. albicans; also recorded: S. pneumoniae; also recorded: C. jeikeium | E. coli (R) | E. faecalis (C) | MRSA (C) | S. pneumoniae (R) | S. epidermidis (C) |  |
| PF-445: peptide having multiple activities (ASMTKRLKLAMSKV; Peptide with targeting and/or antimicrobial activity) | G B | M. luteus; also recorded: S. pneumoniae; also recorded: C. jeikeium |  |  |  | S. pneumoniae (M) |  |  |
| PF-446: peptide having multiple activities (SGNEKV; Peptide with targeting and/or antimicrobial activity) | G B | M. luteus; also recorded: C. jeikeium |  |  |  | S. pneumoniae (H) |  |  |
| PF-447: peptide having multiple activities (IDKSRNKDQFSHIFGLYNICSG; Peptide with targeting and/or antimicrobial activity) | G B | S. epidermidis; also recorded: M. luteus; also recorded: E. coli; also recorded: S. pneumoniae |  | E. faecalis (C) | MRSA (C) | S. pneumoniae (C) | S. epidermidis (C) |  |
| PF-452: peptide having multiple activities (MNNWIKVAQISVTVINEVIDIMKEKQNGGK; Peptide with targeting and/or antimicrobial activity) | G B | M. luteus; also recorded: P. aeruginosa; also recorded: C. albicans; also recorded: S. pneumoniae; also recorded: E. faecalis; also recorded: C. jeikeium; also recorded: M. smegmatis | E. coli (C) | E. faecalis (C) | MRSA (C) | S. pneumoniae (R) | S. epidermidis (C) |  |
| PF-453: peptide having multiple activities (IIQDIAHAFGY; Peptide with targeting and/or antimicrobial activity) | G B | M. luteus; also recorded: E. coli; also recorded: P. aeruginosa; also recorded: S. pneumoniae; also recorded: E. faecalis; also recorded: C. jeikeium; also recorded: C. jejuni | E. coli (C) |  | MRSA (C) | S. pneumoniae (C) | S. epidermidis (C) |  |
| PF-456: peptide having multiple activities (TCVKPRTIN; Peptide with targeting and/or antimicrobial activity) | G B | C. albicans and MRSA and E. faecalis and C. jeikeium and C. jejuni |  | E. faecalis (A) |  |  |  | C. jejuni (A) |
| PF-457: peptide having multiple activities (INKYHHIA; Peptide with targeting and/or antimicrobial activity) | G B | C. albicans; also recorded: S. pneumoniae; also recorded: E. faecalis; also recorded: C. jeikeium |  |  |  | S. pneumoniae (M) |  |  |
| PF-459: peptide having multiple activities (EKRMSFNENQSHRPLL; Peptide with targeting and/or antimicrobial activity) | G B | P. aeruginosa |  |  |  | S. pneumoniae (H) |  |  |
| PF-462: peptide having multiple activities (KNKTDTL; Peptide with targeting and/or antimicrobial activity) | G B | E. faecalis; also recorded: C. jeikeium |  |  |  | S. pneumoniae (H) |  |  |
| PF-464: peptide having multiple activities (VDMVNRFLGN; Peptide with targeting and/or antimicrobial activity) | G B | S. epidermidis and C. albicans and MRSA and S. pneumoniae and E. faecalis and C. jeikeium and C. jejuni |  |  |  | S. pneumoniae (S) |  |  |
| PF-466: peptide having multiple activities (VRKSDQ; Peptide with targeting and/or antimicrobial activity) | G B | MRSA and C. jeikeium and C. jejuni |  |  |  | S. pneumoniae (H) |  |  |
| PF-467: peptide having multiple activities (YYKDYFKEI; Peptide with targeting and/or antimicrobial activity) | G B | MRSA and E. faecalis and C. jeikeium and C. jejuni |  |  |  | S. pneumoniae (H) |  |  |
| PF-470: peptide having multiple activities (PYSDSYATRPHWEQHRAR; Peptide with targeting and/or antimicrobial activity) | G B | M. luteus and E. coli and MRSA and E. faecalis and C. jeikeium and C. jejuni |  | E. faecalis (A) |  |  |  | C. jejuni (A) |
| PF-476: peptide having multiple activities (WADAQYKLCENCSE; Peptide with targeting and/or antimicrobial activity) | G B | M. luteus; also recorded: P. mirabilis; also recorded: C. albicans; also recorded: S. pneumoniae; also recorded: E. faecalis; also recorded: C. jeikeium; also recorded: C. jejuni |  |  |  | S. pneumoniae (H) |  |  |
| PF-484: peptide having multiple activities (HKKDIRKQVFKN; Peptide with targeting and/or antimicrobial activity) | G B | S. epidermidis; also recorded: M. luteus; also recorded: P. mirabilis; also recorded: E. coli; also recorded: E. faecalis; also recorded: C. jeikeium; also recorded: C. jejuni |  | E. faecalis (A) |  |  |  |  |
| PF-513: peptide having multiple activities (SNGVGLGVGIGSGIRF-NH2) | G B | C. albicans |  |  |  | S. pneumoniae (M) |  |  |
| PF-514: peptide having multiple activities (QRFYKLFYHIDLTNEQALKLFQVK; Peptide with targeting and/or antimicrobial activity) | G B | S. epidermidis and E. coli and P. aeruginosa and C. albicans and MRSA and S. pneumoniae and E. faecalis and C. jeikeium | E. coli (R) | E. faecalis (C) |  | S. pneumoniae (M) | S. epidermidis (C) |  |

Reference: patent US20110039763A1, “TARGETED ANTIMICROBIAL MOIETIES” (C3 JIAN, INC., priority 2009, published 2011)
